Reference: paper PMC3914206

How the values were obtained:
Type in all cases: binding
panel of 442 kinases [1] = molecular target: T1, panel of 442 kinases (Homo sapiens, UniProt P53667); details: Compound Concentration 10 µM
T1 construct: purchased KINOMEscan
Source text: (§1) We assessed the selectivity of members of this scaffold using the KINOMEscan methodology across a near comprehensive panel of 442 kinases [[18,27]].

panel of 442 kinases [2] = molecular target: T2, panel of 442 kinases (Homo sapiens, UniProt Q9H2X6); details: Compound Concentration 10 µM
T2 construct: purchased KINOMEscan
Source text: as §1

panel of 442 kinases [3] = molecular target: T3, panel of 442 kinases (Homo sapiens, UniProt Q8WU08); details: kinase YANK1; compound concentration 10 µM
T3 construct: purchased KINOMEscan
Source text: as §1

T3 sequence (Q8WU08 whole entry): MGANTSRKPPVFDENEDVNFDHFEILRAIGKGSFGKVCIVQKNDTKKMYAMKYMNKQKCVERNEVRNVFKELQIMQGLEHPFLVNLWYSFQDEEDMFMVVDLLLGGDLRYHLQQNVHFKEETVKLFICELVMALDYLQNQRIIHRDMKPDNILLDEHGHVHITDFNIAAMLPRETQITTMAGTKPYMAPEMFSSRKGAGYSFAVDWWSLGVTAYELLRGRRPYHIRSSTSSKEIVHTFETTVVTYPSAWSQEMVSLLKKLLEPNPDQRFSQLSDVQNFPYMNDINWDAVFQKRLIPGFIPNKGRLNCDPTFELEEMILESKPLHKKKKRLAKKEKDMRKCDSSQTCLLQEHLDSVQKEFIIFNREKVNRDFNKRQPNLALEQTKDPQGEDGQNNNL
T1 sequence (P53667 whole entry): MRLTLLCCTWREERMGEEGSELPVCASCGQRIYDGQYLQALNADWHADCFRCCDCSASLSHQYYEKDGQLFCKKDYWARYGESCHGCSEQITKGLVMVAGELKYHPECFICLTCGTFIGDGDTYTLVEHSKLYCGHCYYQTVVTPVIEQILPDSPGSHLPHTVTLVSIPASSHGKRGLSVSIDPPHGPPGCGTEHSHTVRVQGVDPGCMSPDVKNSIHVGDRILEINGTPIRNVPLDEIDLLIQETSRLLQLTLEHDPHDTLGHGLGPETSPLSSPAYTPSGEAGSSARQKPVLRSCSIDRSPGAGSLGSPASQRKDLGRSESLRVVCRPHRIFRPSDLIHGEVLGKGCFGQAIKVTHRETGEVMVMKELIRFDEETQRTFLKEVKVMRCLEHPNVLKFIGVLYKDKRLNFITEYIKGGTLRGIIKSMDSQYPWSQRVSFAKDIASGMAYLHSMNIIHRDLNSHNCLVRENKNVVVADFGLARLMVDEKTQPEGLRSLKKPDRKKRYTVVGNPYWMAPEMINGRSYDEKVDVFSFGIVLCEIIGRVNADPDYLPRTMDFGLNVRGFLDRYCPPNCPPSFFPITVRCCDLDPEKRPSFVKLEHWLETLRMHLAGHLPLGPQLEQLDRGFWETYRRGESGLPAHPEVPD
T2 sequence (Q9H2X6 whole entry): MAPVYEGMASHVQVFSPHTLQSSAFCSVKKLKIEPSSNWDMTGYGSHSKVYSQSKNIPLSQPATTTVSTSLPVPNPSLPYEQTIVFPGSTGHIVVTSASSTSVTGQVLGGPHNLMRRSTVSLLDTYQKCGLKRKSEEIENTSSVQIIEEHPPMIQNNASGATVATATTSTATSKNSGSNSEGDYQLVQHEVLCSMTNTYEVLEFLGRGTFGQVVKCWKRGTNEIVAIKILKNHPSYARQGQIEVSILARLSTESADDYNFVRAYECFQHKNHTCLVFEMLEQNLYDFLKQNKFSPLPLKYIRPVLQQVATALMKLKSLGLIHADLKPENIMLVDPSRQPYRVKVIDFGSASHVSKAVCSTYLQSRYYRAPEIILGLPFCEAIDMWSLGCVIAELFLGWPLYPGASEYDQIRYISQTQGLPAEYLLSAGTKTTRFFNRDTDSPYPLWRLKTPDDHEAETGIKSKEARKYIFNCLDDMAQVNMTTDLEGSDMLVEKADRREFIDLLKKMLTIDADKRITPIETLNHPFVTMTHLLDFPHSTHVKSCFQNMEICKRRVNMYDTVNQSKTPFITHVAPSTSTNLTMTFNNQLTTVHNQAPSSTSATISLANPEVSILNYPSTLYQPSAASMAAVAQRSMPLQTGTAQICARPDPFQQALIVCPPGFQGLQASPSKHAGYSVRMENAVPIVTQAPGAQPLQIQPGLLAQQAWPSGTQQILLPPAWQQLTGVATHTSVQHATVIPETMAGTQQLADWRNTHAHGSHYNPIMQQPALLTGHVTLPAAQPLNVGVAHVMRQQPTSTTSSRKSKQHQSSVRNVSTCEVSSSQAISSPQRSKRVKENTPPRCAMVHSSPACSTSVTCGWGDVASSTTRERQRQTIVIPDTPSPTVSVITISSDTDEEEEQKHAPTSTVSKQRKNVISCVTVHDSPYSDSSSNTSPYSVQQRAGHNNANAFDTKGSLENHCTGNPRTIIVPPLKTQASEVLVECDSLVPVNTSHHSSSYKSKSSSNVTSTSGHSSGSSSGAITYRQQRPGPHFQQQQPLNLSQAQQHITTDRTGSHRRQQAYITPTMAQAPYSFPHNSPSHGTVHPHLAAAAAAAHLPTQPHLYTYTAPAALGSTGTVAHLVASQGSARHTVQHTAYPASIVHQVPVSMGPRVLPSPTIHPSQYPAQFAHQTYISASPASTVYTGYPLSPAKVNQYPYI

Q: How did the “KINOMEscan: LIMK1” value (panel of 442 kinases [1]) turn out when `CCOc1cc(C(=O)N2CCC(N3CCN(C)CC3)CC2)ccc1Nc1ncc2c(n1)N(C1CCCC1)c1ccccc1C(=O)N2C` [Compound 26] was run?
A: 100

Q: What about the “KINOMEscan: HIPK2” value (panel of 442 kinases [2]) of the same compound?
A: 100

Q: And the “% Ctrl, YANK1” value (panel of 442 kinases [3])?
A: 100 % Ctrl

Q: For `COc1cc(C(=O)N2CCC(N3CCN(C)CC3)CC2)ccc1Nc1ncc2c(n1)N(C1CCCC1)c1ccccc1C(=O)N2C` [Compound 25, 11-cyclopentyl-2-((2-methoxy-4-(4-(4-methylpiperazin-1-yl)piperidine-1-carbonyl)phenyl)amino)-5-methyl-5H-benzo[e]pyrimido[5,4-b][1,4]diazepin-6(11H)-one], which “KINOMEscan: LIMK1” value (panel of 442 kinases [1]) is on record?
A: 93

Q: What about the “KINOMEscan: HIPK2” value (panel of 442 kinases [2]) of the same compound?
A: 100

Q: And the “% Ctrl, YANK1” value (panel of 442 kinases [3])?
A: 100 % Ctrl

Q: Which “KINOMEscan: HIPK2” value (panel of 442 kinases [2]) does the source give for `COc1cc(C(=O)N2CCC(N3CCN(C)CC3)CC2)ccc1Nc1ncc2c(n1)N1CCc3cccc(c31)C(=O)N2C` [Compound 24] here?
A: 88

Q: And the “% Ctrl, YANK1” value (panel of 442 kinases [3])?
A: 100 % Ctrl

Q: How did the “KINOMEscan: LIMK1” value (panel of 442 kinases [1]) turn out when `COc1cc(C(=O)N2CCC(N3CCN(C)CC3)CC2)ccc1Nc1ncc2c(n1)N(C)c1ccccc1C(=O)N2C` [15 (LRRK2-IN-1)] was run?
A: 95

Q: And the “KINOMEscan: HIPK2” value (panel of 442 kinases [2])?
A: 88

Q: What about the “% Ctrl, YANK1” value (panel of 442 kinases [3]) of the same compound?
A: 100 % Ctrl
